The values below are quoted from earlier work in paper PMC11859340, “The Therapeutic Potential of Spirooxindoles in Cancer: A Focus on p53–MDM2 Modulation” (Pharmaceuticals, 2025).

The structures appear in SMILES notation. Like-named read-outs stand apart in the source and are kept apart here.

For data set [1], the system named is MDA-MB-231 (breast). Also noted: method as in PMID 36174446. Conditions: MTT; read-out: IC50 against MDA-MB-231.
Data set [2] has as its target MDM2. Also noted: method as in PMID 36174446. Conditions: read-out: KD against MDM2.
For data set [3], the system named is PC3 (prostate). Also noted: method as in PMID 36174446. Conditions: MTT; read-out: IC50 against PC3.
The subject of data set [4] is HCT-116 (colon). Set-up: method as in PMID 36174446. To be noted: MTT; read-out: IC50 against HCT-116.
The test system of data set [5] is A549 (lung). Also noted: method as in PMID 36174446. Conditions: MTT; read-out: IC50 against A549.
The test system of data set [6] is neuroblastoma. Set-up: method as in PMID 29416773. Conditions: oral 50 mg/kg body weight for 50 days, 4 days on and 2 days off.
Data set [7] concerns PC-3 (p53−). Set-up: method as in PMID 30735387. To be noted: MTT; read-out: IC50 against PC-3 (p53−).
The subject of data set [8] is LNCaP (p53+). Also noted: method as in PMID 30735387. Conditions: MTT; read-out: IC50 against LNCaP (p53+).
The test system of data set [9] is osteosarcoma, acute leukemia, prostate, colon, and dedifferentiated liposarcoma cancers. To be noted: mouse xenograft models.
The subject of data set [10] is p53. Also noted: method as in doi:10.1080/10426507.2020.1723590.
Data set [11] relates to HCT116 (p53^−/−). Set-up: method as in PMID 28987608. To be noted: MTT; read-out: IC50 against HCT116 (p53^−/−).
In data set [12] the test system is HEK293T (embryonic kidney). Set-up: method as in doi:10.1080/10426507.2020.1723590. Conditions: MTT; read-out: IC50 against HEK293T.
The test system of data set [13] is A549 (lung). Set-up: method as in doi:10.1080/10426507.2020.1723590. Conditions: MTT; read-out: IC50 against A549.
The test system of data set [14] is HCT116 (p53^−/−). Also noted: method as in doi:10.1039/C5MD00450K. Conditions: read-out: GI50 against HCT116 (p53^−/−).
The test system of data set [15] is HCT116^+/+. Set-up: method as in PMID 34946727. To be noted: MTT; read-out: CC50 against HCT116^+/+.
The test system of data set [16] is HCT116^−/−. Set-up: method as in PMID 34946727. To be noted: MTT; read-out: CC50 against HCT116^−/−.
For data set [17], the system named is HCT116 (colon). Also noted: method as in PMID 29302672. Conditions: at 10 μM, CCK-8.
Data set [18] deals with MCF7 (breast). Set-up: method as in PMID 28797774. Conditions: CCK-8; read-out: IC50 against MCF7.
In data set [19] the test system is HCT116 (p53^−/−). Also noted: method as in PMID 24268795. Conditions: read-out: GI50 against HCT116 (p53^−/−).
The subject of data set [20] is A549 (lung). Set-up: method as in PMID 28797774. Conditions: CCK-8; read-out: IC50 against A549.
Data set [21] has as its system A549 (lung). Set-up: method as in PMID 26883465. Conditions: MTT; read-out: IC50 against A549.
For data set [22], the system named is MDA-MB-231 (breast). Set-up: method as in PMID 26883465. To be noted: MTT; read-out: IC50 against MDA-MB-231.
The subject of data set [23] is colon HCT116. Also noted: method as in PMID 31047751. To be noted: at 10 μM, CCK-8.
The test system of data set [24] is MD-MB-231. Set-up: method as in PMID 25618595. Conditions: MTT; read-out: IC50 against MD-MB-231.
Data set [25] concerns HepG2 (hepatocellular wild p53 type). Also noted: method as in PMID 24268795. To be noted: read-out: GI50 against HepG2.
The subject of data set [26] is HCT116 (colon). Also noted: method as in PMID 28797774. Conditions: CCK-8; read-out: IC50 against HCT116.
The test system of data set [27] is A549 (lung). Set-up: method as in PMID 29302672. Conditions: at 10 μM, CCK-8.
Data set [28] relates to MCF7. Also noted: method as in PMID 25618595. Conditions: MTT; read-out: IC50 against MCF7.
Data set [29] concerns lung A549. Also noted: method as in PMID 31047751. Conditions: CCK-8.
The test system of data set [30] is MCF7 (breast). Also noted: method as in PMID 29302672. To be noted: at 10 μM, CCK-8.
Data set [31] concerns HCT116 (colon). Also noted: method as in PMID 26883465. To be noted: MTT; read-out: IC50 against HCT116.
In data set [32] the test system is breast MCF7. Set-up: method as in PMID 31047751. To be noted: CCK-8.

`O=C(c1nc2ccccc2[nH]1)[C@H]1[C@H](c2ccccc2)C2CC3CCCCC3N2[C@]12C(=O)Nc1ccc(Cl)cc12` (stereo partly drawn) [compound 38]: the IC50 in data set [1] was 2.4 ± 0.2 µM; in [3], 3.4 ± 0.3 µM; in data set [4], 7.2 ± 0.3 µM; in data set [5], 7.8 ± 0.3 µM. Further, the Kd in data set [2] was 7.94 µM.
As for `CC1(C)CCC2(CC1)N[C@@H](C(=O)N[C@@H]1CC[C@@H](C(N)=O)OC1)[C@H](c1ccnc(Cl)c1F)[C@]21C(=O)Nc2cc(Cl)ccc21` [Milademetan], the “tumor growth and survival” value in data set [6] was “tumor growth inhibition and extended survival”.
`COC(=O)C1([N+](=O)[O-])C[C@@H](c2ccccc2)N(c2ccccc2)[C@]12C(=O)Nc1ccccc12` (stereo partly drawn): the results for the IC50 in data set [7] and in data set [8] were 6.8 to 8.5 µM and 6.2 to 7.9 µM, respectively.
Turning to `CC(C)(C)C[C@@H]1N[C@@H](C(=O)N[C@H]2CC[C@H](O)CC2)[C@H](c2cccc(Cl)c2F)[C@]12C(=O)Nc1cc(Cl)ccc12` [SAR405838], the cancer inhibition result in data set [9] is listed as “recognizable or complete cancer inhibition”.
For `COc1ccc(C2=N[C@@H](c3ccc(Cl)cc3)[C@@H](c3ccc(Cl)cc3)N2C(=O)N2CCNC(=O)C2)c(OC(C)C)c1` [nutlin-3a, reference compound], the p53 reporter activation in data set [10] (A549, 1.56 to 100 μM compound concentrations) is reported as 3.6 to 5.1 folds. In data set [10] (A549, at 100 μM), the p53 receptor activation is listed as 5.1 fold. The IC50 in data set [11] is 47.8 ± 1.9 µM; in data set [7] it was 28.1 to 29.6 µM; in data set [12], 10.4 ± 0.8 µM; in [13] it was 14.9 ± 0.6 µM. Also, the GI50 in [14] is 47.8 ± 1.9 µM.
For `COc1ccc(N2C(=O)[C@@]3(CN(C)C[C@@]34C(=O)Nc3ccc(Cl)cc34)NC2=S)cc1` [84 (X = S, R = Cl, R’ = 4-MeOC6H4)], the CC50 in [15] was 1.95 ± 0.43 µM; in data set [16], 2.35 ± 0.95 µM.
In the case of `COc1ccc(C2=N[C@@H](c3ccc(Cl)cc3)[C@@H](c3ccc(Cl)cc3)N2C(=O)N2CCNC(=O)C2)c(OC(C)C)c1` [nutlin-3, reference compound], the “% inhibition, HCT116” value in [17] is 42.9%; in [23] it was 64.4%. In addition, the IC50 in data set [18] was 28.4 ± 2.5 µM; in [20] it was 10 ± 0.8 µM; in [21], 2.22 µM; in [22], 4.68 µM; in data set [24], 23.5 µM; in data set [26], 14.9 ± 0.6 µM. For the same molecule, the IC50 in data set [28] was 11.6 µM; in [29] (read-out: IC50 against A549), 2.4 µM; in data set [31], 1.16 µM; in data set [32] (read-out: IC50 against MCF7), 12.1 µM. The GI50 in data set [19] was 52.3 ± 1.15 µM; in data set [25], 51.3 ± 1.04 µM. Further, the “% inhibition, A549” value was 42.9% in data set [27] and 47.0% in data set [29] (at 10 μM). Also, the “% inhibition, MCF7” value in data set [30] is 33.1%; in data set [32] (at 10 μM) it was 32.8%.
